Source: ChEMBL document CHEMBL3301361, “Experimental in vitro DMPK and physicochemical data on a set of publicly disclosed compounds”
Values after ≈ are worked out from the molar mass of the structure shown.

Columns and labels:
in vitro [1] = settings: human, plasma
physchem [2] = settings: pH 7.4 buffer
in vitro [3] = settings: human
in vitro [4] = settings: hepatocytes
in vitro [5] = settings: SD, HW or BN, rat, plasma
physchem [6] = settings: octan-1-ol/water

| Structure (SMILES) | fraction unbound at 5 h (in vitro [1]; PPB) | solubility thermodynamic (physchem [2]) | microsomal CLint (in vitro [3]; liver microsomes) | hepatocyte CLint (in vitro [4]) | fraction unbound at 5 h (in vitro [5]) | microsomal CLint (in vitro [3]; microsomes) | logD (physchem [6]; pH 7.4, LogD7.4) | fraction unbound at 5 h (in vitro [1]) | logD (physchem [6]; pH 7.4) |
| --- | --- | --- | --- | --- | --- | --- | --- | --- | --- |
| Cc1ccc(CO)cc1N(c1ccnc(Nc2cc(N3CCOCC3)cc(S(C)(=O)=O)c2)n1)C(C)C | 0.0409 | 1.3 µM (≈ 0.665 µg/mL) | > 150 µL/min/mg | 53.7 µL/min/1e6 cells | – | – | – | – | – |
| CCc1cc2c(cc1N1CCC(N3CCOCC3)CC1)C(C)(C)c1[nH]c3cc(C#N)ccc3c1C2=O [ALECTINIB] | – | – | – | 5.01 µL/min/1e6 cells | 0.5 | – | – | – | – |
| O=C(c1ccccc1)N1CCC2(CCN(Cc3cccc(Cl)c3)CC2)CC1 | – | – | – | < 3 µL/min/1e6 cells | 0.166 | 5 µL/min/mg | – | – | – |
| Cc1cc(OCCCS(C)(=O)=O)cc(C)c1-c1cccc(COc2ccc3c(c2)OC[C@H]3CC(=O)O)c1 | 0.0036 | 51.3 µM (≈ 26.9 µg/mL) | – | 10 µL/min/1e6 cells | – | 5.5 µL/min/mg | 2.3 | – | – |
| Cc1cn([C@H]2CCCN([C@@H](CC(C)C)c3ccc(C(=O)O)c(Oc4cccc(Cl)c4)c3)C2)c(=O)[nH]c1=O | 0.0111 | – | – | 9.55 µL/min/1e6 cells | 0.016 | – | 0.93 | – | – |
| COCC1=C(C(=O)O)N2C(=O)[C@@H](NC(=O)/C(=N\OC)c3csc(N)n3)[C@H]2SC1 [CEFPODOXIME] | 0.465 | – | – | < 3 µL/min/1e6 cells | 0.454 | – | – | – | – |
| O=C(Nc1ccc(F)cc1)c1ccc(Cl)[n+]([O-])c1 | 0.465 | 355 µM (≈ 94.6 µg/mL) | – | 149 µL/min/1e6 cells | – | < 3 µL/min/mg | 1.38 | – | – |
| COc1cc(NC(=O)c2ccccn2)ccc1Cl | – | – | – | > 150 µL/min/1e6 cells | 0.0447 | – | – | – | – |
| O=C(Nc1cccc(Cl)c1)c1ccccn1 | – | – | – | > 150 µL/min/1e6 cells | 0.0488 | – | 3.4 | – | – |
| CC(C)(C)NS(=O)(=O)c1cncc(-c2ccc3nc(N)nn3c2)c1 | 0.371 | 63.1 µM (≈ 21.9 µg/mL) | – | 20 µL/min/1e6 cells | – | < 3 µL/min/mg | 1.41 | – | – |
| CCOc1ccc(-n2c([C@@H](C)N(Cc3cccnc3)C(=O)Cc3ccc(OC(F)(F)F)cc3)nc3ncccc3c2=O)cc1 | 0.0477 | – | – | 20 µL/min/1e6 cells | 0.0293 | – | 3.7 | – | – |
| Cc1ccc(C(NC(=O)c2ccccc2O)C(=O)Nc2c(C)cccc2C)s1 (stereo unspecified) | – | – | – | 70 µL/min/1e6 cells | 0.0075 | – | 4.05 | – | – |
| COc1ccc2c(Oc3ccc(CC(=O)Nc4cn(C)nc4C)c(OC)c3)ccnc2c1 | 0.0111 | 10.7 µM (≈ 4.63 µg/mL) | 24.6 µL/min/mg | 23.4 µL/min/1e6 cells | – | – | 3.5 | – | – |
| O=C(CSc1ccccc1)N1CCN(C(=O)c2ccco2)CC1 | 0.266 | – | 12.3 µL/min/mg | 64.6 µL/min/1e6 cells | – | – | 1.6 | – | – |
| COc1cc(O)c(C(CC(=O)N2CC(C)CC(C)C2)c2ccc3c(c2)OCO3)c(OC)c1 (stereo unspecified) | 0.0024 | – | – | > 150 µL/min/1e6 cells | – | > 150 µL/min/mg | 4.3 | – | – |
| C=CC(=O)Nc1cccc(CN2C(=O)N(c3c(Cl)c(OC)cc(OC)c3Cl)Cc3cnc(NCCCCN(CC)CC)nc32)c1 | 0.02 | – | 87.1 µL/min/mg | 39.8 µL/min/1e6 cells | – | – | 2.04 | – | – |
| O=C(C1CCN(c2nnc(-n3cccc3)s2)CC1)N1CCN(Cc2ccc3c(c2)OCO3)CC1 | 0.0447 | – | > 150 µL/min/mg | 50.1 µL/min/1e6 cells | – | – | 2.5 | – | – |
| O=C(Nc1ccncc1)c1cccc2ccccc12 | – | – | 60.3 µL/min/mg | 25.1 µL/min/1e6 cells | – | – | – | 0.069 | 3.1 |
| CN[C@@H](C)C(=O)N[C@H](C(=O)N1CC[C@H]2CCN(CCc3ccccc3)C[C@H]21)C1CCCCC1 | 0.0568 | – | 21.4 µL/min/mg | 10.5 µL/min/1e6 cells | – | – | 2.47 | – | – |
| O=C(CN1CCOCC1)Nc1ccc(-c2cccc3c(=O)cc(N4CCOCC4)oc23)cc1-c1ccccc1 | – | – | – | 123 µL/min/1e6 cells | 0.0633 | – | – | – | – |
| CCN(CC)CCNc1ncnc2c1sc1nc(N3CCOCC3)c3c(c12)CCCC3 | 0.0784 | – | 9.55 µL/min/mg | 26.3 µL/min/1e6 cells | – | – | 3.3 | – | – |
| C[C@@H]1C[C@H]2[C@@H]3CCC4=CC(=O)C=C[C@]4(C)[C@@]3(F)[C@@H](O)C[C@]2(C)[C@@]1(O)C(=O)CO [DEXAMETHASONE] | 0.285 | 141 µM (≈ 55.5 µg/mL) | – | 31 µL/min/1e6 cells | 0.126 | – | 1.87 | – | – |
| CNCc1ccc(-c2[nH]c3cc(F)cc4c3c2CCNC4=O)cc1 [RUCAPARIB] | 0.232 | 851 µM (≈ 275 µg/mL) | – | 12 µL/min/1e6 cells | – | 5.5 µL/min/mg | 1.17 | – | – |
| CC(=O)c1cc2ccc(O)cc2oc1=O | 0.0149 | – | – | > 150 µL/min/1e6 cells | – | 28.2 µL/min/mg | 0.87 | – | – |
| COc1cnc(-c2ccccn2)nc1N(C)c1ccccc1 | 0.04 | – | 104 µL/min/mg | > 150 µL/min/1e6 cells | – | – | 2.79 | – | – |
| CC1N=C(N)N=C(N)N1c1ccc(Cl)cc1 (stereo unspecified) | 0.747 | – | 3.31 µL/min/mg | < 3 µL/min/1e6 cells | – | – | -0.8 | – | – |
| CCCS(=O)(=O)N1N=Cc2cc(Cl)ccc2B1O | 0.17 | – | 9.77 µL/min/mg | < 3 µL/min/1e6 cells | – | – | -0.4 | – | – |
| Nc1ncnc2c1ncn2[C@@H]1O[C@H](CSCCCNC(=O)NCc2ccccc2)[C@@H](O)[C@H]1O | 0.154 | – | – | 14.4 µL/min/1e6 cells | – | 21.4 µL/min/mg | 0.9 | – | – |
| COc1ccc(NC(=O)CCc2c(C)nc3nc(C)nn3c2C)cc1 | 0.176 | – | – | 3.09 µL/min/1e6 cells | – | 3.98 µL/min/mg | 1.4 | – | – |
| O=C(O)c1cncc(-c2ccc(Cl)c(C(=O)NCC34CC5CC(CC(C5)C3)C4)c2)c1 | 0.0099 | – | – | 7 µL/min/1e6 cells | – | 66 µL/min/mg | 0.85 | – | – |
